Measurements as given in ChEMBL document CHEMBL2311476, “Inhibitory effects of metachromins L-Q and its related analogs against receptor tyrosine kinases EGFR and HER2” (Bioorg Med Chem Lett, 2013).
In brackets after ≈: the same amount, converted by molar mass.

Key:
[1] = molecular target: Epidermal growth factor receptor (Homo sapiens, UniProt P00533); assay: Inhibition of EGFR (unknown origin) by Z-LYTE assay
KB = assay: Cytotoxicity against human KB cells after 48 hrs; type: cell-based
[2] = molecular target: Receptor tyrosine-protein kinase erbB-2 (Homo sapiens, UniProt P04626); assay: Inhibition of HER2 (unknown origin) by Z-LYTE assay
L1210 = assay: Cytotoxicity against mouse L1210 cells after 48 hrs; type: cell-based; settings: L1210, 48 h

Chain of Epidermal growth factor receptor (P00533 whole entry): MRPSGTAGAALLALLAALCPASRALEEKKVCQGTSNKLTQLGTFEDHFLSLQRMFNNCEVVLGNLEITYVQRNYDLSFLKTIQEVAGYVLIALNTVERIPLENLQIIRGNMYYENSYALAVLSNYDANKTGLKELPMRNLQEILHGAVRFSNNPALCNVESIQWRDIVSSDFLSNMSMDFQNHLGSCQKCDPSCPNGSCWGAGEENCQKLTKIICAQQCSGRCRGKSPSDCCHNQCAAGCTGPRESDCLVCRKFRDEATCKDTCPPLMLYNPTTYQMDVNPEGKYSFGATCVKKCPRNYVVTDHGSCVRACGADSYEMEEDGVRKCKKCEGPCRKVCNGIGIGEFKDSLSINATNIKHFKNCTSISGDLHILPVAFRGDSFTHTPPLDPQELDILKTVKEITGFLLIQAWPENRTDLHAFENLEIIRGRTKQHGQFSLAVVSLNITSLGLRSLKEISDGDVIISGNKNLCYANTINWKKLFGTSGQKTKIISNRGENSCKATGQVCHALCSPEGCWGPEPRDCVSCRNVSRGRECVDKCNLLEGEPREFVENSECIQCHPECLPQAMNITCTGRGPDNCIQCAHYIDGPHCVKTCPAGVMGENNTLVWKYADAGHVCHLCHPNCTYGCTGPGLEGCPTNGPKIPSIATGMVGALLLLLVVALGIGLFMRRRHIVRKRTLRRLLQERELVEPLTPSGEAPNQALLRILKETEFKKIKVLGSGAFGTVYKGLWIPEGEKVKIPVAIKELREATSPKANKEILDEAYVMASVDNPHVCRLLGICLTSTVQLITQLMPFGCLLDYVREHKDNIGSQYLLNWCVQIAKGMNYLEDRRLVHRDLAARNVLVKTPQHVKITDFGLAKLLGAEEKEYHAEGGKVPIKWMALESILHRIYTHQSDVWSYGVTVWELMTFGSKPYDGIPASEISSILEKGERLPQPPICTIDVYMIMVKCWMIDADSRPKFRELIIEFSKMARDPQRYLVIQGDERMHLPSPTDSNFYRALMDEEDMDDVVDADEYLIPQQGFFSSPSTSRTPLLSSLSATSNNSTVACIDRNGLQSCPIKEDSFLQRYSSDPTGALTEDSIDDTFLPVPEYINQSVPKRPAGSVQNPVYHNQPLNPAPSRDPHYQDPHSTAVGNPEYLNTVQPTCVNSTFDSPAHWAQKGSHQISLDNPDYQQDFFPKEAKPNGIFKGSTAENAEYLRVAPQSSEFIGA
Chain of Receptor tyrosine-protein kinase erbB-2 (P04626 whole entry): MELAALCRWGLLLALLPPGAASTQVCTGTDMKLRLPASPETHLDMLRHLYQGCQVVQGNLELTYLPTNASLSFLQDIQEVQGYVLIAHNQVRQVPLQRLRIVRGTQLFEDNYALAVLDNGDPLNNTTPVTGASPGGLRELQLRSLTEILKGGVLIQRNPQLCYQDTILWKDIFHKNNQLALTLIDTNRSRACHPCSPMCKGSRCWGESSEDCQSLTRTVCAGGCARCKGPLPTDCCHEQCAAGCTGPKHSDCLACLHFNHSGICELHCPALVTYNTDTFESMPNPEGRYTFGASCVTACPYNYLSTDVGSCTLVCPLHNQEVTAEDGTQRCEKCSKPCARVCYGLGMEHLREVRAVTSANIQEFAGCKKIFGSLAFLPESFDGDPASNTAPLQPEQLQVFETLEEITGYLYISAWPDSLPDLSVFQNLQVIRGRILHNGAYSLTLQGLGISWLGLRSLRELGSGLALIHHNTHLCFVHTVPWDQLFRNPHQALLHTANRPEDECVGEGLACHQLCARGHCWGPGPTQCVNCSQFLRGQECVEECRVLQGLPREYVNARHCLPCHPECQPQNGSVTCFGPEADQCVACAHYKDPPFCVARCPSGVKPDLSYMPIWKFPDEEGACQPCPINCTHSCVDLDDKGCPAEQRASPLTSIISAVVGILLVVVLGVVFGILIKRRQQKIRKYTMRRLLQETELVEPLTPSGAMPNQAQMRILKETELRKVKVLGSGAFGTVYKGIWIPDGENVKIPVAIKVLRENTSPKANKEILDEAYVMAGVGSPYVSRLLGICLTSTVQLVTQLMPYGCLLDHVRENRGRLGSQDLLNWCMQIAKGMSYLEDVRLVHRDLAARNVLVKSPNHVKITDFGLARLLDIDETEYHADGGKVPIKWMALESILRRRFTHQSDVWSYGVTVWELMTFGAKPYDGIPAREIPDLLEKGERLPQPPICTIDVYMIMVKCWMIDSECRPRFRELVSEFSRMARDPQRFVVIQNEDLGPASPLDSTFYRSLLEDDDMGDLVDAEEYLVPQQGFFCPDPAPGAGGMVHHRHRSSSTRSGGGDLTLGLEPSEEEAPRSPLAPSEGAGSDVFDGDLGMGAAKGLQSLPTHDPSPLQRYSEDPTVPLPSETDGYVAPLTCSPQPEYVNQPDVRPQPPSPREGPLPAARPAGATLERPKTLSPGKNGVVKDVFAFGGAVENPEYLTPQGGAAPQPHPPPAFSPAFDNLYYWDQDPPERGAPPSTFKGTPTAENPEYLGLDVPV

SMILES	IC50 [1] [µM]	IC50 (KB) [µg/mL]	IC50 [2] [µM]	IC50 (L1210) [µg/mL]
C=C1[C@H](C)CCC[C@]1(C)CC/C(C)=C/CC1=C(O)C(=O)C=C(N[C@@H](C(=O)O)[C@H](C)O)C1=O	> 449	> 10	> 449	4.6 (≈ 10.3 µM)
CC1=CCC[C@](C)(CC/C(C)=C/CC2=C(O)C(=O)C=C(N[C@@H](C(=O)O)[C@H](C)O)C2=O)[C@@H]1C	> 449	> 10	215	> 10
C=C1[C@H](C)CCC[C@]1(C)CC/C(C)=C/CC1=C(O)C(=O)C=C(N[C@H](C(=O)O)[C@H](C)O)C1=O	> 449	> 10	> 449	> 10
CC1=CCC[C@](C)(CC/C(C)=C/CC2=C(O)C(=O)C=C(N[C@H](C(=O)O)[C@H](C)O)C2=O)[C@@H]1C	> 449	> 10	89.8	> 10
C=C1[C@H](C)CCC[C@]1(C)CC/C(C)=C/CC1=C(O)C(=O)C=C(N[C@@H](C(=O)O)[C@@H](C)O)C1=O	211	> 10	180	> 10
CC1=CCC[C@](C)(CC/C(C)=C/CC2=C(O)C(=O)C=C(N[C@@H](C(=O)O)[C@@H](C)O)C2=O)[C@@H]1C	269	> 10	> 449	> 10
C=C1[C@H](C)CCC[C@]1(C)CC/C(C)=C/CC1=C(O)C(=O)C=C(N[C@H](CO)C(=O)O)C1=O	> 463	> 10	> 463	2.6 (≈ 6.03 µM)
CC1=CCC[C@](C)(CC/C(C)=C/CC2=C(O)C(=O)C=C(N[C@H](CO)C(=O)O)C2=O)[C@@H]1C	> 463	> 10	> 463	> 10
C=C1[C@H](C)CCC[C@]1(C)CC/C(C)=C/CC1=C(O)C(=O)C=C(N[C@H](C(=O)O)C(C)C)C1=O	435	> 10	104	4.4 (≈ 9.92 µM)
CC1=CCC[C@](C)(CC/C(C)=C/CC2=C(O)C(=O)C=C(N[C@H](C(=O)O)C(C)C)C2=O)[C@@H]1C	293	> 10	78.9	3.4 (≈ 7.66 µM)
C=C1[C@H](C)CCC[C@]1(C)CC/C(C)=C/CC1=C(O)C(=O)C=C(N[C@@H](C(=O)O)C(C)C)C1=O	293	6.2 (≈ 14 µM)	142	3.4 (≈ 7.66 µM)
CC1=CCC[C@](C)(CC/C(C)=C/CC2=C(O)C(=O)C=C(N[C@@H](C(=O)O)C(C)C)C2=O)[C@@H]1C	334	> 10	83.4	3 (≈ 6.76 µM)
C=C1[C@H](C)CCC[C@]1(C)CC/C(C)=C/CC1=C(O)C(=O)C=C(OC)C1=O [METACHROMIN A]	> 558	> 10	> 558	2.4 (≈ 6.69 µM)
COC1=CC(=O)C(O)=C(C/C=C(\C)CC[C@@]2(C)CCC=C(C)[C@H]2C)C1=O [METACHROMIN C]	> 558	> 10	> 558	–
C=C1[C@H](C)CCC[C@]1(C)CC/C(C)=C/CC1=C(O)C(=O)C=C(NCC(=O)O)C1=O [METACHROMIN L]	491	4 (≈ 9.96 µM)	311	4 (≈ 9.96 µM)
CC1=CCC[C@](C)(CC/C(C)=C/CC2=C(O)C(=O)C=C(NCC(=O)O)C2=O)[C@@H]1C [METACHROMIN M]	> 498	5.4 (≈ 13.4 µM)	197	3.5 (≈ 8.72 µM)
C=C1[C@H](C)CCC[C@]1(C)CC/C(C)=C/CC1=C(O)C(=O)C=C(N[C@H](C(=O)O)[C@@H](C)O)C1=O [METACHROMIN N]	> 449	> 10	426	> 10
CC1=CCC[C@](C)(CC/C(C)=C/CC2=C(O)C(=O)C=C(N[C@H](C(=O)O)[C@@H](C)O)C2=O)[C@@H]1C [METACHROMIN O]	> 449	> 10	60.6	> 10
C=C1[C@H](C)CCC[C@]1(C)CC/C(C)=C/CC1=C(O)C(=O)C=C(N[C@@H](CO)C(=O)O)C1=O [METACHROMIN P]	> 463	> 10	41.7	> 10
CC1=CCC[C@](C)(CC/C(C)=C/CC2=C(O)C(=O)C=C(N[C@@H](CO)C(=O)O)C2=O)[C@@H]1C [METACHROMIN Q]	> 463	> 10	51	> 10
CC1=CCC[C@H]2[C@](C)(CC3=C(O)C(=O)C=C(N[C@@H](CO)C(=O)O)C3=O)[C@@H](C)CC[C@]12C [NAKIJIQUINONE C]	290	7.6 (≈ 17.6 µM)	69.5	3.8 (≈ 8.81 µM)
